Patent US4429044A, “Preparation of an alkaline protease from flavobacterium arborescens” (Miles Laboratories, Inc., priority 1982, dated 1984)

B1: SSI: streptomyces subtilisin inhibitor (protein, UniProt P01006 32-144, looked up)
Subtilisin inhibitor: DAPSALYAPSALVLTVGKGVSATTAAPERAVTLTCAPGPSGTHPAAGSACADLAAVGGDLNALTRGEDVMCPMVYDPVLLTVDGVWQGKRVSYERVFSNECEMNAHGSSVFAF

Test system: F. arborescens protease
Assay type: biochemical, Flavobacterium arborescens

Molecule | Activity of protease in presence of inhibitor | Effect of inhibitor on protease activity (in words)
O=C(O)CN(CCN(CC(=O)O)CC(=O)O)CC(=O)O [EDTA, ethylenediamine tetraacetate] | 4.1 units | –
CCN1C(=O)C=CC1=O [NEM, N--ethyl maleimide] | 2.0 units | –
O=S(=O)(F)Cc1ccccc1 [PMSF, phenylmethyl sulfonyl fluoride] | 1.9 units | no effect
B1 | 1.6 units | strongly inhibited
